Source: ChEMBL document CHEMBL5532735, “Novel Furopyridine and Furopyrimidine Compounds as PI4K Inhibitors for Treating Malaria and Viral Infection” (ACS Med Chem Lett, 2024)

Tested on: Plasmodium falciparum
Test: Antimalarial activity against Plasmodium falciparum assessed as inhibition of parasite growth by [3H]hypoxanthine incorporation assay
Assay type: functional, organism-based

Compound | IC50
CC(C)(O)c1cccc(-c2ncnc3cc(-c4ccc(S(C)(=N)=O)cc4)oc23)c1F (stereo unspecified) | < 10 nM
CS(=O)(=O)c1ccc(-c2cc3nccc(-c4cccc(C5(O)CCC(F)(F)CC5)c4)c3o2)cn1 | < 10 nM
Cn1cc(-c2cc3nccc(-c4cccc(S(C)(=O)=O)c4)c3o2)ccc1=O | < 10 nM
CC(C)(O)c1cc(-c2ccnc3cc(-c4ccc(S(C)(=O)=O)cc4)oc23)ccn1 | < 10 nM
CC(C)(O)c1cccc(-c2ncnc3cc(-c4ccc(S(C)(=O)=O)cc4)oc23)c1F | < 10 nM
CS(=O)(=O)c1ccc(-c2cc3nccc(-c4cccc(C5(O)CCC5)c4)c3o2)cc1 | < 10 nM
